The assay can be described thus: DPPH assay of anti-oxidative (radical scavenging) activity. The class given is biochemical. The settings on record: 100 μM DPPH, 37° C., 30 minutes, absorbance 517 nm; FIG. 7. How it is done:
To evaluate anti-oxidative activity, DPPH (1,1-diphenyl-2-picrylhydrazyl) assay was carried out. The samples used in this test (Doore Co., Ltd.) are as follows.
DPPH assay is a test in which an oxidant called DPPH is used to initiate oxidation and the ability of a sample to be tested in removing radicals is determined. When DPPH meets a material having anti-oxidative activity, it […] electrons to cause radical removing and undergoes a change in color from purple to yellow. Thus, it is possible to observe the oxidative activity of a material easily with the naked eye.
Each sample was introduced to a 96-well plate in an amount of 10 μl, and 100 μM of DPPH was introduced thereto in an amount of 190 μl. After carrying out reaction at 37° C. for 30 minutes, the absorbance was measured at 517 nm. Vitamin C was used as positive control (10, 5, 2.5 μg/ml).
(DPPH is a stable violet radical that fades when it is reduced.)

Results on one substance are retold here after US9802064B2, “Microcapsule comprising glycoprotein derived from plants” (AMOREPACIFIC CORPORATION, priority 2012, dated 2017).

Regarding sodium caseinate [ISAI-022], the “anti-oxidative activity (DPPH radical scavenging)” value was “no radical scavenging activity”.
